Source: ChEMBL document CHEMBL5316361 (J Nat Prod, 2023)
Converted amounts (≈) assume the structure as drawn.

How the values were obtained:
[1] = Growth inhibition of human dermal fibroblast cultured as 2D cells by tryphan blue based analysis; type: toxicity, cell-based; details: human dermal fibroblasts (NHDF), 2D culture
[2] = Hemolytic activity in Sheep RBC assessed as hemolysis at 31 ug/ml by microplate reader analysis relative to control; type: toxicity, cell-based, Ovis aries, Erythrocyte; details: sheep red blood cells (erythrocytes), at 31 µg/mL, read-out: Activity
MDA-MB-231 [3] = experiment: Cytotoxicity against human MDA-MB-231 cells cultured as 2.5D cells assessed as cell death at 125 ug/ml measured after 12 hrs by OCT/imaris based analysis relative to control; type: functional; details: dose 125 µg/ml
[4] = Therapeutic index, ratio of HC50 for Sheep RBC to IC50 for cytotoxicity against human MDA-MB-231 cultured as 2.5D cells; type: toxicity, cell-based; details: sheep (RBC) and human (MDA-MB-231), sheep red blood cells versus MDA-MB-231 cells, 2.5D culture; read-out: TI
MDA-MB-231 [5] = experiment: Cytotoxicity against human MDA-MB-231 cultured as 2D cells assessed as inhibition of cell growth measured after 12 hrs by CCK8 assay; type: functional, cell-based; details: MDA-MB-231, 12 h
[6] = Therapeutic index, ratio of IC50 for cytotoxicity against human dermal fibroblast cultured as 3D cells to IC50 for cytotoxicity against human MDA-MB-231 cultured as 3D cells; type: toxicity, cell-based; details: human dermal fibroblasts versus MDA-MB-231 cells, 3D culture, read-out: TI
[7] = Cytotoxicity against human dermal fibroblast cultured as 2D cells assessed as reduction in cell viability measured after 12 hrs by CCK8 assay; type: toxicity, cell-based; details: human dermal fibroblasts (NHDF), 2D culture
MDA-MB-231 [8] = experiment: Cytotoxicity against human MDA-MB-231 cells cultured as 2.5D cells assessed as increase in dead cell count at 125 ug/ml incubated for 12 hrs by tryphan blue based analysis (Rvb=7700x10^3No_unit); type: functional; details: dose 125 µg/ml
MDA-MB-231 [9] = experiment: Cytotoxicity against human MDA-MB-231 cells cultured as 3D cells assessed as cell death at 125 ug/ml measured after 12 hrs by tryphan blue based analysis relative to control; type: functional; details: dose 125 µg/ml
MDA-MB-231 [10] = experiment: Cytotoxicity against human MDA-MB-231 cells cultured as 3D cells assessed as cell death at 125 ug/ml measured after 12 hrs by OCT/imaris based analysis relative to control; type: functional; details: dose 125 µg/ml
MDA-MB-231 [11] = experiment: Cytotoxicity against human MDA-MB-231 cells cultured as 3D cells assessed as increase in dead cell count at 125 ug/ml incubated for 12 hrs by tryphan blue based analysis (Rvb=11000x10^3No_unit); type: functional; details: dose 125 µg/ml
[12] = Therapeutic index, ratio of IC50 for cytotoxicity against human dermal fibroblast cultured as 2D cells to IC50 for cytotoxicity against human MDA-MB-231 cultured as 2D cells; type: toxicity, cell-based; details: human dermal fibroblasts versus MDA-MB-231 cells, 2D culture, read-out: TI
[13] = Hemolytic activity against Sheep RBC assessed as hemolysis by microplate reader analysis; type: toxicity, cell-based, Ovis aries, Erythrocyte; details: sheep red blood cells (erythrocytes)
[14] = Therapeutic index, ratio of IC50 for cytotoxicity against human dermal fibroblast cultured as 2.5 D cells to IC50 for cytotoxicity against human MDA-MB-231 cultured as 2.5 D cells; type: toxicity, cell-based; details: read-out: TI
[15] = Therapeutic index, ratio of HC50 for Sheep RBC to IC50 for cytotoxicity against human MDA-MB-231 cultured as 3D cells; type: toxicity, cell-based; details: sheep (RBC) and human (MDA-MB-231), sheep red blood cells versus MDA-MB-231 cells, 3D culture; read-out: TI
MDA-MB-231 [16] = experiment: Cytotoxicity against human MDA-MB-231 cells cultured as 3D cells assessed as decrease in live cell count at 125 ug/ml incubated for 12 hrs by tryphan blue based analysis (Rvb=20900x10^3No_unit); type: functional; details: dose 125 µg/ml
MDA-MB-231 [17] = experiment: Cytotoxicity against human MDA-MB-231 cells cultured as 2.5D cells assessed as decrease in live cell count at 125 ug/ml incubated for 12 hrs by tryphan blue based analysis (Rvb=22000x10^3No_unit); type: functional; details: dose 125 µg/ml
[18] = Selectivity ratio of IC50 for human MDA-MB-231 cultured as 2.5D cells to IC50 for human MDA-MB-231 cultured as 2D cells; type: functional
[19] = Therapeutic index, ratio of HC50 for sheep RBC to IC50 for cytotoxicity against human MDA-MB-231 cultured as 2D cells; type: toxicity, cell-based; details: sheep (RBC) and human (MDA-MB-231), sheep red blood cells versus MDA-MB-231 cells, 2D culture; read-out: TI
MDA-MB-231 [20] = experiment: Cytotoxicity against human MDA-MB-231 cultured as 2.5D cells assessed as inhibition of cell growth measured after 12 hrs by CellTiter-Glo luciferase detection reagent based assay; type: functional; details: MDA-MB-231, 12 h
MDA-MB-231 [21] = experiment: Cytotoxicity against human MDA-MB-231 cells cultured as 2.5D cells assessed as cell death measured after 12 hrs relative to control; type: functional
MDA-MB-231 [22] = experiment: Cytotoxicity against human MDA-MB-231 cells cultured as 2.5D cells assessed as cell death at 125 ug/ml measured after 12 hrs by tryphan blue based analysis relative to control; type: functional; details: dose 125 µg/ml
MDA-MB-231 [23] = experiment: Cytotoxicity against human MDA-MB-231 cells cultured as 3D cells assessed as cell death measured after 12 hrs relative to control; type: functional
MDA-MB-231 [24] = experiment: Cytotoxicity against human MDA-MB-231 cultured as 3D cells assessed as inhibition of cell growth measured after 12 hrs by CellTiter-Glo luciferase detection reagent based assay; type: functional; details: MDA-MB-231, 12 h
Jurkat = experiment: Antiproliferative activity against human Jurkat T cells assessed as inhibition of cell growth at 25 ug/ml relative to control; type: functional
[25] = Selectivity ratio of IC50 for human MDA-MB-231 cultured as 3D cells to IC50 for human MDA-MB-231 cultured as 2D cells; type: functional
MDA-MB-231 [26] = experiment: Cytotoxicity against human MDA-MB-231 cells cultured as 3D cells assessed as decrease in live cell count at 62.5 ug/ml incubated for 12 hrs by tryphan blue based analysis (Rvb=20900x10^3No_unit); type: functional; details: dose 62.5 µg/ml
MDA-MB-231 [27] = experiment: Cytotoxicity against human MDA-MB-231 cells cultured as 2.5D cells assessed as cell death at 62.5 ug/ml measured after 12 hrs by tryphan blue based analysis relative to control; type: functional; details: dose 62.5 µg/ml
MDA-MB-231 [28] = experiment: Cytotoxicity against human MDA-MB-231 cells cultured as 2.5D cells assessed as cell death at 62.5 ug/ml measured after 12 hrs by OCT/imaris based analysis relative to control; type: functional; details: dose 62.5 µg/ml
MDA-MB-231 [29] = experiment: Cytotoxicity against human MDA-MB-231 cells cultured as 3D cells assessed as increase in dead cell count at 62.5 ug/ml incubated for 12 hrs by tryphan blue based analysis (Rvb=11000x10^3No_unit); type: functional; details: dose 62.5 µg/ml
MDA-MB-231 [30] = experiment: Cytotoxicity against human MDA-MB-231 cells cultured as 2.5D cells assessed as increase in dead cell count at 62.5 ug/ml incubated for 12 hrs by tryphan blue based analysis (Rvb=7700x10^3No_unit); type: functional; details: dose 62.5 µg/ml
MDA-MB-231 [31] = experiment: Cytotoxicity against human MDA-MB-231 cells cultured as 3D cells assessed as cell death at 62.5 ug/ml measured after 12 hrs by tryphan blue based analysis relative to control; type: functional; details: dose 62.5 µg/ml
MDA-MB-231 [32] = experiment: Cytotoxicity against human MDA-MB-231 cells cultured as 3D cells assessed as cell death at 62.5 ug/ml measured after 12 hrs by OCT/imaris based analysis relative to control; type: functional; details: dose 62.5 µg/ml
MDA-MB-231 [33] = experiment: Cytotoxicity against human MDA-MB-231 cells cultured as 2.5D cells assessed as decrease in live cell count at 62.5 ug/ml incubated for 12 hrs by tryphan blue based analysis (Rvb=22000x10^3No_unit); type: functional; details: dose 62.5 µg/ml

Row | Structure (SMILES) | hemolysis at 31 ug/ml [2] | selectivity ratio [4] | IC50 (MDA-MB-231 [5]) | selectivity ratio [6] | IC50 at 12 h [7] | selectivity ratio [12] | HC50 [13] | selectivity ratio [14] | selectivity ratio [15] | Ratio IC50 [18] | selectivity ratio [19] | IC50 (MDA-MB-231 [20]) | Activity (MDA-MB-231 [21]) | Activity (MDA-MB-231 [23]) | IC50 (MDA-MB-231 [24]) | Ratio IC50 [25] | also measured
1 | COc1cccc2c1C(=O)c1c(O)c3c(c(O)c1C2=O)C[C@@](O)(C(=O)CO)C[C@@H]3O[C@H]1C[C@H](N)[C@H](O)[C@H](C)O1 [DOXORUBICIN] |  |  |  |  |  |  |  |  |  |  |  |  |  |  |  |  | GI50 [1]: 30 µg/mL (≈ 55.2 µM)
2 | CCOC(=O)CCCCCCC/C=C\CCCCCCC(C)O[C@@H]1O[C@H](COC(C)=O)[C@@H](O)[C@H](O)[C@H]1O[C@@H]1O[C@H](COC(C)=O)[C@@H](O)[C@H](O)[C@H]1O (stereo not given in full) | > 10% | 1.04 | 27 µg/mL (≈ 36.7 µM) | 0.33 | 43 µg/mL (≈ 58.5 µM) | 1.59 | 125 µg/mL | 0.36 | 0.96 | 4.5 | 4.63 | 120 µg/mL (≈ 163 µM) | 80.2% | 88.2% | 130 µg/mL (≈ 177 µM) | 5 | Activity (MDA-MB-231 [3]): 70%; Activity (MDA-MB-231 [8]): 16317 10^3No_unit; Activity (MDA-MB-231 [9]): 70%; Activity (MDA-MB-231 [10]): 70%; Activity (MDA-MB-231 [11]): 22917 10^3No_unit; Activity (MDA-MB-231 [16]): 3667 10^3No_unit; Activity (MDA-MB-231 [17]): 5500 10^3No_unit; Activity (MDA-MB-231 [22]): 70%; inhibition at 25 µg/mL (Jurkat): 90%
3 | CC(=O)OC[C@H]1O[C@H]2OC(C)CCCCCC/C=C\CCCCCCCC(=O)O[C@H]3[C@H](O)[C@@H](O)[C@H](O[C@@H]2[C@@H](O)[C@@H]1O)O[C@@H]3COC(C)=O (stereo not given in full) | > 10% | 3.29 | 14 µg/mL (≈ 20.3 µM) | 0.94 | 31 µg/mL (≈ 45 µM) | 2.21 | 125 µg/mL | 0.82 | 3.79 | 3 | 8.93 | 38 µg/mL (≈ 55.2 µM) | 88.4% | 89.3% | 33 µg/mL (≈ 47.9 µM) | 2.5 | Activity (MDA-MB-231 [26]): 3300 10^3No_unit; Activity (MDA-MB-231 [27]): 70%; Activity (MDA-MB-231 [28]): 70%; Activity (MDA-MB-231 [29]): 17783 10^3No_unit; Activity (MDA-MB-231 [30]): 13933 10^3No_unit; Activity (MDA-MB-231 [31]): 70%; Activity (MDA-MB-231 [32]): 70%; Activity (MDA-MB-231 [33]): 3117 10^3No_unit
